Test results published in US5032588A, “Thiazole lipoxygenase-inhibiting compounds derived from non-steroidal antiinflammatory carboxylic acids” (Abbott Laboratories, priority 1989, dated 1991).

Target: T1, 5-lipoxygenase (Rattus norvegicus, UniProt P12527)
T1 construct: 20,000x g supernatant from homogenized RBL-1 cells; endogenous in cells; host or cells: RBL-1 cells (20,000 x g supernatant of homogenate)
T1 sequence (P12527 1-673): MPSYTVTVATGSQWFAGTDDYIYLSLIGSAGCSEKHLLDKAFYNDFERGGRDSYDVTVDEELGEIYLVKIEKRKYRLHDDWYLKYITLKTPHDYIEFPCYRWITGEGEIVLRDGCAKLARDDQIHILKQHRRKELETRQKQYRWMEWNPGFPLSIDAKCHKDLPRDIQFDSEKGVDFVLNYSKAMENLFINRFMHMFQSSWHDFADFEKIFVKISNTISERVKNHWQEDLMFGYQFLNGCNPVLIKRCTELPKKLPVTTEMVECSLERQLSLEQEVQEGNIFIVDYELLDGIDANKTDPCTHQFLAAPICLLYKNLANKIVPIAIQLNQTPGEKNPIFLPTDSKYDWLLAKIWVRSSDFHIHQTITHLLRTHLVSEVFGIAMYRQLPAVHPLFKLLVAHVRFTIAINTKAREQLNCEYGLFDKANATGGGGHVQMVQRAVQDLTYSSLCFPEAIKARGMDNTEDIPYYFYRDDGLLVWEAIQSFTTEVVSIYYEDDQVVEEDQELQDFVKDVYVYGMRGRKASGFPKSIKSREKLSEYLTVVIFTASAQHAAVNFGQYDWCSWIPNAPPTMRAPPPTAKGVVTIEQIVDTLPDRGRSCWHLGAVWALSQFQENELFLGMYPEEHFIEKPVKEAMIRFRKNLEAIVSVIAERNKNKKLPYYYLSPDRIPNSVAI
Test: Inhibition of 5-lipoxygenase activity (20,000x g supernatant from homogenized RBL-1 cells)
Assay type: biochemical
Conditions: linear regression of percentage inhibition versus log inhibitor concentration, read-out: IC50 (concentration of compound producing 50% enzyme inhibition)
Procedure: Inhibition of 5-lipoxygenase activity was determined using the 20,000x g supernatant from homogenized RBL-1 cells in a similar manner as that described by Dyer and coworkers (Dyer, R. D.; Haviv, F.; Hanel, A. M.; Bornemier, D. A.; Carter, G. W. Fed. Proc., Fed. Am. Soc. Exp. Biol., 43:1462A, (1984).) IC50 values (concentration of compound producing 50% enzyme inhibition) were calculated by linear regression analysis of percentage inhibition versus log inhibitor concentration plots.

Structure (SMILES)	IC50 [µM]
CC(C)Cc1ccc(Cc2nc(O)c(-c3ccccc3)s2)cc1 [Example 3, 2-[(4-isobutylphenyl)methyl]-5-phenyl-4-hydroxythiazole]	1.1
CC(C)Cc1ccc(C(C)c2nc(O)c(-c3ccccc3)s2)cc1 (centres unmarked) [Example 2, 2-[1-(4-isobutylphenyl)ethyl]-5-phenyl-4-hydroxy-thiazole]	0.71
COc1ccc2cc(C(C)c3sc(-c4ccccc4)nc3O)ccc2c1 (centres unmarked) [Example 5, 5-[1-(6-methoxy-2-naphthyl)ethyl]-2-phenyl-4-hydroxythiazole]	0.9

Stronger by IC50, values ahead:

IC50 [µM]	Structure (SMILES)
0.42	COc1ccc2cc(C(C)c3nc(O)c(-c4ccccc4)s3)ccc2c1 (centres unmarked) [Example 1, 2-[1-(6-methoxy-2-naphthyl)ethyl]-5-phenyl-4-hydroxythiazole]
0.06	CCC(c1ccc(CC(C)C)cc1)c1nc(O)c(-c2ccccc2)s1 (centres unmarked) [Example 4, 2-[1-(4-isobutylphenyl)propyl]-5-phenyl-4-hydroxythiazole]
